The experiment deals with L1210 leukemia ip in BDF1 mice, survival T/C. Briefly: NCI In Vivo Anticancer Drug Screen. Data for tumor model L1210 Leukemia (intraperitoneal) in B6D2F1 (BDF1) mice. The note with it: endpoint: mean survival time, higher = longer survival. In short, it runs like this: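 In this screen, tumor-bearing mice given compound are compared to those given vehicle, and their survival values are reported as a treated-to-control quotient.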

Setting [1] is: dose: 100.0 mg/kg/injection, schedule: Q01DX001 (ip), vehicle: saline with Tween-80.
[2] abbreviates: dose: 200.0 mg/kg/injection, schedule: Q01DX001 (ip), vehicle: saline with Tween-80.
Setting [3] is: dose: 400.0 mg/kg/injection, schedule: Q01DX001 (ip), vehicle: saline with Tween-80.
Where [4] appears, read: dose: 100.0 mg/kg/injection, schedule: Q01DX001 (ip), vehicle: carboxymethylcellulose (CMC).
Where [5] appears, read: dose: 400.0 mg/kg/injection, schedule: Q01DX001 (ip), vehicle: carboxymethylcellulose (CMC).
Setting [6] is: dose: 50.0 mg/kg/injection, schedule: Q01DX001 (ip), vehicle: carboxymethylcellulose (CMC).
The mark [7] stands for this setting: dose: 200.0 mg/kg/injection, schedule: Q01DX001 (ip), vehicle: carboxymethylcellulose (CMC).
[8] abbreviates: dose: 100.0 mg/kg/injection, schedule: Q04DX003 (ip), vehicle: saline with Tween-80.
Setting [9] is: dose: 200.0 mg/kg/injection, schedule: Q04DX003 (ip), vehicle: saline with Tween-80.
[10] abbreviates: dose: 400.0 mg/kg/injection, schedule: Q04DX003 (ip), vehicle: saline with Tween-80.
[11] abbreviates: dose: 100.0 mg/kg/injection, schedule: Q01DX009 (ip), vehicle: Klucel (hydroxypropylcellulose) (HPC).
The mark [12] stands for this setting: dose: 100.0 mg/kg/injection, schedule: Q04DX003 (ip), vehicle: Klucel (hydroxypropylcellulose) (HPC).
[13] abbreviates: dose: 200.0 mg/kg/injection, schedule: Q01DX009 (ip), vehicle: Klucel (hydroxypropylcellulose) (HPC).
Where [14] appears, read: dose: 200.0 mg/kg/injection, schedule: Q04DX003 (ip), vehicle: Klucel (hydroxypropylcellulose) (HPC).
The mark [15] stands for this setting: dose: 400.0 mg/kg/injection, schedule: Q01DX009 (ip), vehicle: Klucel (hydroxypropylcellulose) (HPC).
Setting [16] is: dose: 400.0 mg/kg/injection, schedule: Q04DX003 (ip), vehicle: Klucel (hydroxypropylcellulose) (HPC).

The structures appear in SMILES notation. Several values for one entry are separate records, joined by “and”; a condition that tells them apart may be missing. Identical values can stand only once. Inconclusive results and toxic doses are left out.

With `CC1(C)C2CCC(O)C1C2` (centres undefined), the T/C is 104 % of control under setting [1], 97 % of control under setting [2] and 90 % of control under setting [3].

Consider `COc1cc2c(C)cc(=O)oc2cc1O`, for which the T/C is, setting by setting: under setting [4], 98 % of control; under setting [5], 93 % of control.

Regarding `C[n+]1ccccc1/C=C/c1ccc2c(c1)OCO2`, the T/C is 94 % of control (dose: 12.5 mg/kg/injection, schedule: Q01DX009 (ip), vehicle: Klucel (hydroxypropylcellulose) (HPC)); 95 % of control (dose: 12.5 mg/kg/injection, schedule: Q04DX003 (ip), vehicle: Klucel (hydroxypropylcellulose) (HPC)); 92 % of control (dose: 25.0 mg/kg/injection, schedule: Q01DX009 (ip), vehicle: Klucel (hydroxypropylcellulose) (HPC)); 94 % of control (dose: 25.0 mg/kg/injection, schedule: Q04DX003 (ip), vehicle: Klucel (hydroxypropylcellulose) (HPC)).

As to `CCCNCCN`, the T/C reads like this: (dose: 50.0 mg/kg/injection, schedule: Q01DX009 (ip), vehicle: saline) 98 % of control; (dose: 100.0 mg/kg/injection, schedule: Q01DX009 (ip), vehicle: saline) 102 % of control; (dose: 100.0 mg/kg/injection, schedule: Q04DX003 (ip), vehicle: saline) 97 % of control; (dose: 200.0 mg/kg/injection, schedule: Q04DX003 (ip), vehicle: saline) 99 % of control.

As to `OC1CCC2CC12` (centres undefined), the T/C reads like this: (dose: 50.0 mg/kg/injection, schedule: Q01DX001 (ip), vehicle: saline with Tween-80) 98 % of control; under setting [1], 102 % of control and 106 % of control; under setting [2], 107 % of control and 95 % of control; under setting [3], 93 % of control.

For `CC1=C(c2ccccc2)C(c2ccccc2)=C(C)C1=O`, the T/C is, setting by setting: under setting [6], 97 % of control; under setting [4], 95 % of control; under setting [7], 89 % of control; under setting [5], 95 % of control.

For `COc1ccc(OC)c(NC(=O)Oc2ccc(Br)cc2Br)c1`, the T/C (dose: 100.0 mg/kg/injection, schedule: Q04DX002 (ip), vehicle: Klucel (hydroxypropylcellulose) (HPC)) is 104 % of control; the T/C (dose: 200.0 mg/kg/injection, schedule: Q04DX002 (ip), vehicle: Klucel (hydroxypropylcellulose) (HPC)) was 104 % of control; the T/C (dose: 400.0 mg/kg/injection, schedule: Q04DX002 (ip), vehicle: Klucel (hydroxypropylcellulose) (HPC)) is 86 % of control.

`ClCC1(CCl)COC(c2ccccc2)OC1`: the T/C is, setting by setting: under setting [8], 95 % of control; under setting [9], 93 % of control; under setting [10], 92 % of control.

`CCCCCCCC/C=C\CCCCCCCC(=O)OCCCCCC`: the T/C (dose: 100.0 mg/kg/injection, schedule: Q01DX009 (ip), vehicle: saline sonified) was 98 % of control; the T/C (dose: 200.0 mg/kg/injection, schedule: Q01DX009 (ip), vehicle: saline sonified) is 102 % of control; the T/C (dose: 400.0 mg/kg/injection, schedule: Q01DX009 (ip), vehicle: saline sonified) was 93 % of control.

Turning to `CC(=O)CN1C(=O)c2ccccc2C1=O`, the T/C runs as follows: under setting [11], 102 % of control; under setting [12], 111 % of control; under setting [13], 108 % of control; under setting [14], 104 % of control; under setting [15], 105 % of control; under setting [16], 98 % of control.

Take `COC(=O)c1ccc(F)cc1`: the T/C is, setting by setting: under setting [6], 92 % of control; under setting [4], 97 % of control; under setting [7], 97 % of control; under setting [5], 95 % of control.

`Cc1ccc(NC(=O)N2CC2C)cc1NC(=O)N1CC1C` (centres undefined): the T/C (dose: 2.5 mg/kg/injection, schedule: Q01DX009 (ip), vehicle: saline) was 118 % of control and the T/C (dose: 20.0 mg/kg/injection, schedule: Q01DX009 (ip), vehicle: saline) is 197 % of control.

Take `CC(=O)Nc1nc2oc(C)nc2c(=O)[nH]1`: the T/C was 104 % of control (dose: 100.0 mg/kg/injection, schedule: Q01DX001 (ip), vehicle: Klucel (hydroxypropylcellulose) (HPC)); 97 % of control (dose: 200.0 mg/kg/injection, schedule: Q01DX001 (ip), vehicle: Klucel (hydroxypropylcellulose) (HPC)); 103 % of control (dose: 400.0 mg/kg/injection, schedule: Q01DX001 (ip), vehicle: Klucel (hydroxypropylcellulose) (HPC)).

Take `Nc1ccc2cc3ccc(N)cc3nc2c1`: the T/C (dose: 50.0 mg/kg/injection, schedule: Q01DX001 (ip), vehicle: saline) was 120 % of control.

In the case of `CC1=CC(=O)N(N)C1=O`, the T/C by setting is: (dose: 100.0 mg/kg/injection, schedule: Q01DX009 (ip), vehicle: saline with Tween-80) 102 % of control; under setting [8], 98 % of control; (dose: 200.0 mg/kg/injection, schedule: Q01DX009 (ip), vehicle: saline with Tween-80) 104 % of control; under setting [9], 100 % of control; (dose: 400.0 mg/kg/injection, schedule: Q01DX009 (ip), vehicle: saline with Tween-80) 100 % of control; under setting [10], 96 % of control.

Turning to `COc1cc2c(cc1OC)-c1c(=O)c3cc(OC)c(OC)cc3n([O-])[n+]1CC2`, the T/C by setting is: (dose: 100.0 mg/kg/injection, schedule: Q01DX001 (ip), vehicle: saline) 93 % of control; (dose: 200.0 mg/kg/injection, schedule: Q01DX001 (ip), vehicle: saline) 94 % of control; (dose: 400.0 mg/kg/injection, schedule: Q01DX001 (ip), vehicle: saline) 89 % of control.

`NC(=S)N/N=C/c1ccc(F)cc1`: the T/C runs as follows: (dose: 60.0 mg/kg/injection, schedule: Q01DX Z (oral), vehicle: methylcellulose (MC)) 90 % of control; (dose: 120.0 mg/kg/injection, schedule: Q01DX Z (oral), vehicle: methylcellulose (MC)) 87 % of control.

Regarding `NNc1nncc(=O)[nH]1`, the T/C was 103 % of control under setting [1] and 103 % of control under setting [2].

`CC(C)NC(=O)c1cc(NC(=O)c2ccc(C(=O)Nc3cc(C(=O)NC(C)C)cc(C4=NCCN4)c3)cc2)cc(C2=NCCN2)c1`: the T/C is, setting by setting: (dose: 2.5 mg/kg/injection, schedule: Q01DX015 (ip), vehicle: water) 89 % of control; (dose: 5.0 mg/kg/injection, schedule: Q01DX015 (ip), vehicle: water) 97 % of control; (dose: 10.0 mg/kg/injection, schedule: Q01DX015 (ip), vehicle: water) 92 % of control; (dose: 18.75 mg/kg/injection, schedule: Q01DX015 (ip), vehicle: water) 101 % of control; (dose: 20.0 mg/kg/injection, schedule: Q01DX015 (ip), vehicle: water) 95 % of control; (dose: 37.5 mg/kg/injection, schedule: Q01DX015 (ip), vehicle: water) 96 % of control.

Consider `COc1cc2ccc(CC(=O)NCCc3ccc4c(c3)OCO4)cc2cc1OC`, for which the T/C was 97 % of control under setting [11]; 97 % of control under setting [12]; 90 % of control under setting [13]; 102 % of control under setting [14]; 93 % of control under setting [15]; 91 % of control under setting [16].

With `CC(=O)NS(=O)(=O)CCCC[n+]1c(C)oc2ccc(-c3ccccc3)cc21`, the T/C reads like this: (dose: 100.0 mg/kg/injection, schedule: Q04DX003 (sc), vehicle: olive oil, sesame oil, peanut oil) 98 % of control; (dose: 200.0 mg/kg/injection, schedule: Q04DX003 (sc), vehicle: olive oil, sesame oil, peanut oil) 100 % of control; (dose: 400.0 mg/kg/injection, schedule: Q04DX003 (sc), vehicle: olive oil, sesame oil, peanut oil) 100 % of control.

Regarding `COc1cc2c(cc1OC)-c1cc3cc(OC)c(OC)cc3c(C)[n+]1CC2` (tested in a mixture with another compound), the T/C (dose: 12.5 mg/kg/injection, schedule: Q04DX002 (ip), vehicle: Klucel (hydroxypropylcellulose) (HPC)) was 110 % of control; the T/C (dose: 25.0 mg/kg/injection, schedule: Q01DX009 (ip), vehicle: saline with Tween-80) was 104 % of control; the T/C (dose: 25.0 mg/kg/injection, schedule: Q04DX002 (ip), vehicle: Klucel (hydroxypropylcellulose) (HPC)) was 106 % of control; the T/C (dose: 50.0 mg/kg/injection, schedule: Q01DX009 (ip), vehicle: saline with Tween-80) was 107 % of control; the T/C (dose: 50.0 mg/kg/injection, schedule: Q04DX002 (ip), vehicle: Klucel (hydroxypropylcellulose) (HPC)) was 95 % of control.

(Values after PubChem BioAssay AID248 (DTP/NCI, 2004).)
